# From patent US10266544B2, “Aryl substituted aminomethyl spectinomycin analogs as antibacterial agents” (ST. JUDE CHILDREN'S RESEARCH HOSPITAL, INC., priority 2013, dated 2019)
# Where a name gives a salt, the structure may show the parent alone. Read-outs that look alike come from different tables or passages of the source.
# Key:
# Type in all cases: cell-based
# [1] = system: Burkholderia cepacia (ATCC 25416); experiment: MIC determination, microbroth dilution; settings: Burkholderia cepacia
# [2] = system: Staphylococcus aureus (ATCC 29213); experiment: MIC determination, microbroth dilution
# [3] = system: Escherichia coli (ATCC 700926); experiment: MIC determination, microbroth dilution; settings: ATCC700926; Escherichia coli (ATCC 700926); read-out: MIC E.c.
# Experimental: MICs were determined using the microbroth dilution method according to Clinical Laboratory Standards Institute (CLSI; National, C. F. C. L. S., Methods for Dilution Antimicrobial Susceptibility Tests for Bacteria Grow aerobically-Seventh Edition: Approved Standard M7-A7, CLSI, Wayne, Pa., USA, 2008) and were read by visual inspection. Two fold serial dilutions of antibiotic in 100 μL of the appropriate broth media were first prepared in 96-well round bottom microtiter plates (Nalge Nunc International, Rochester, N.Y., USA). An equivalent volume (100 μL) of bacterial broth inocula containing approximately 10^5 bacterial cfu/mL was added to each well to give final concentrations of drug starting at 200 μg/mL and the plates were incubated aerobically at 37° C. M. tuberculosis microtiter plates were incubated for 7 days and all other strains were incubated overnight. After incubations, in all cases the MIC was recorded as the lowest concentration of drug that prevented bacterial growth.
# [4] = system: MRSA, Staphylococcus aureus (NRS70); experiment: MIC determination, microbroth dilution; settings: read-out: MIC MRSA
# [5] = system: acinetobacter baumannii (ATCC 19606); experiment: MIC determination, microbroth dilution; settings: ATCC19606
# [6] = system: M. tuberculosis clinical isolates; experiment: microbe, parasite or virus in culture; settings: Mycobacterium tuberculosis
# Bacillus anthracis = experiment: microbe, parasite or virus in culture; settings: read-out: MIC B.a.
# [7] = system: Bacillus anthracis, Sterne 34F2; experiment: microbe, parasite or virus in culture; settings: STERNE34F2, read-out: MIC B.a.
# [8] = system: Klebsiella pneumoniae (ATCC 33495); experiment: MIC determination, microbroth dilution; settings: ATCC33495
# E. coli K12 ΔtolC = experiment: microbe, parasite or virus in culture; settings: Escherichia coli, read-out: MIC E.c. Δtolc
# [9] = system: Enterococcus faecalis (ATCC 33186); experiment: MIC determination, microbroth dilution
# [10] = system: Bacillus subtilis (ATCC 23857); experiment: MIC determination, microbroth dilution; settings: ATCC23857; Bacillus subtilis (ATCC 23857); read-out: MIC B.s.
# [11] = system: Streptococcus pneumoniae (R6); experiment: MIC determination, microbroth dilution; settings: Streptococcus pneumoniae (R6); read-out: MIC S. pn.
# [12] = system: Streptococcus pyogenes (ATCC 700294); experiment: MIC determination, microbroth dilution; settings: ATCC700294; Streptococcus pyogenes (ATCC 700294); read-out: MIC S. py.
# [13] = system: Proteus mirabilis (ATCC 25933); experiment: MIC determination, microbroth dilution; settings: ATCC25933
# [14] = system: Pseudomonas aeruginosa (PA01); experiment: MIC determination, microbroth dilution
# [15] = system: Proteus vulgaris (ATCC 33420); experiment: MIC determination, microbroth dilution; settings: ATCC33420
# [16] = system: Stenotrophomonas maltophilia (ATCC 13637); experiment: MIC determination, microbroth dilution; settings: ATCC13637; Stenotrophomonas maltophilia (ATCC 13637); read-out: MIC S.m.
# [17] = ATCC25416, read-out: MIC B.c., Burkholderia cepacia (ATCC 25416)
# [18] = ATCC25416, read-out: MIC B.c., Burkholderia cepacia, Table 6
# [19] = Staphylococcus aureus, ATCC29213, read-out: MIC S.a.
# [20] = ATCC33186, Enterococcus faecalis (ATCC 33186), read-out: MIC E.f.
# [21] = ATCC29213, Staphylococcus aureus (ATCC 29213), read-out: MIC S.a.
SMILES,MIC ([4]; Staphylococcus aureus (NRS70)) [µg/mL],"MIC ([6]; H37RV, read-out: MIC H37Rv) [µg/mL]",MIC [7] [µg/mL],"MIC [9, 20] [µg/mL]",MIC [10] [µg/mL],MIC [11] [µg/mL],"MIC [2, 21] [µg/mL]",MIC [12] [µg/mL],also measured
"CN[C@@H]1[C@H](O)[C@H](NC)[C@H]2O[C@]3(O)[C@H](O[C@@H]2[C@H]1O)O[C@H](C)C[C@@]3(O)CNCCc1ccc(F)cc1 [compound 33, 3′-(R)-3′-(4-FLUOROphenethylaminomethyl)dihydrospectinomycin Trihydrochloride]",25 to 50,3.1,12.5,25,3.1 to 6.3,,,,"MIC [1, 17]: ≥ 200 µg/mL; MIC [1, 18]: > 200 µg/mL; MIC [2, 19]: 12.5 to 25 µg/mL; MIC [3]: 12.5 µg/mL; MIC [5]: > 200 µg/mL; MIC ([6]; read-out: MIC TN022): 6.3 µg/mL; MIC ([6]; read-out: MIC TN026): 6.3 µg/mL; MIC (Bacillus anthracis): 12.5 µg/mL; MIC [8]: 200 µg/mL; MIC (E. coli K12 ΔtolC): 6.3 µg/mL"
CN[C@@H]1[C@H](O)[C@H](NC)C2O[C@]3(O)C(OC2[C@H]1O)O[C@H](C)C[C@@]3(O)CNCCC(C)c1ccccc1 (some centres unmarked) [compound 47],100,6.3,> 200,25,12.5,25,25,25,
CN[C@@H]1[C@H](O)[C@H](NC)C2O[C@]3(O)C(OC2[C@H]1O)O[C@H](C)C[C@@]3(O)CNCC(C)c1ccccc1 (some centres unmarked) [compound 49],12.5,100,> 200,6.25,12.5,12.5,50,12.5,
CN[C@@H]1[C@H](O)[C@H](NC)C2O[C@]3(O)C(OC2[C@H]1O)O[C@H](C)C[C@@]3(O)CNCc1cccn1C (some centres unmarked) [compound 48],200,200,> 200,> 200,12.5,100,200,200,
CN[C@@H]1[C@H](O)[C@H](NC)C2O[C@]3(O)C(OC2[C@H]1O)O[C@H](C)C[C@@]3(O)CNCc1ccc2ccccc2c1 (some centres unmarked) [compound 39],100,50,> 200,50,25,12.5,100,12.5,
CN[C@@H]1[C@H](O)[C@H](NC)C2O[C@]3(O)C(OC2[C@H]1O)O[C@H](C)C[C@@]3(O)CNCc1cn(C)c2ccccc12 (some centres unmarked) [compound 37],200,50,> 200,50,12.5,25,50,12.5,
CN[C@@H]1[C@H](O)[C@H](NC)C2O[C@]3(O)C(OC2[C@H]1O)O[C@H](C)C[C@@]3(O)CNCc1ccc2c(c1)OCO2 (some centres unmarked) [compound 36],> 200,50,> 200,100,12.5,25,100,25,
CN[C@@H]1[C@H](O)[C@H](NC)C2O[C@]3(O)C(OC2[C@H]1O)O[C@H](C)C[C@@]3(O)CNCCCc1ccco1 (some centres unmarked) [compound 38],100,6.3,> 200,50,6.25,12.5,50,25,
"CN[C@@H]1[C@H](O)[C@H](NC)[C@H]2O[C@]3(O)[C@H](O[C@@H]2[C@H]1O)O[C@H](C)C[C@@]3(O)CNCCc1ccc(C)cc1 [compound 32, 3′-(R)-3′-[(4-Methyl)]Phenethylaminomethyl)]Dihydrospectinomycin Trihydrochloride]",,3.1,12.5,,3.1 to 6.3,6.3,,3.1 to 6.3,"MIC [1, 17]: > 200 µg/mL; MIC [1, 18]: ≥ 200 µg/mL; MIC [2, 19]: 12.5 µg/mL; MIC [3]: 100 to 200 µg/mL; MIC ([4]; Staphylococcus aureus): 12.5 to 25 µg/mL; MIC [5]: > 200 µg/mL; MIC ([6]; read-out: MIC TN022): 6.3 µg/mL; MIC ([6]; read-out: MIC TN026): 6.3 µg/mL; MIC [13]: > 200 µg/mL; MIC (Bacillus anthracis): 12.5 µg/mL; MIC [8]: > 200 µg/mL; MIC [14]: ≥ 200 µg/mL; MIC (E. coli K12 ΔtolC): 50 to 100 µg/mL; MIC ([9]; Enterococcus faecalis, ATCC33186, read-out: MIC E.f.): 12.5 µg/mL; MIC [15]: 100 µg/mL; MIC [16]: 6.3 µg/mL"
CN[C@@H]1[C@H](O)[C@H](NC)C2O[C@]3(O)C(OC2[C@H]1O)O[C@H](C)C[C@@]3(O)CNCc1ccc(-c2ccccc2)cc1 (some centres unmarked) [compound 40],100,100,> 200,25,50,12.5,100,6.25,
CN[C@@H]1[C@H](O)[C@H](NC)C2O[C@]3(O)C(OC2[C@H]1O)O[C@H](C)C[C@@]3(O)CNCc1ccc(OC)c2c1CCCC2 (some centres unmarked) [compound 45],200,200,> 200,50,50,25,100,25,
CN[C@@H]1[C@H](O)[C@H](NC)C2O[C@]3(O)C(OC2[C@H]1O)O[C@H](C)C[C@@]3(O)CNCc1ccc(Cc2ccccc2)cc1 (some centres unmarked) [compound 44],25,100,> 200,25,25,6.25,50,3.13,
